The record followed here is patent US20230348564A1, “ANTI-CANCER PROTEINS” (UNICHEM LABORATORIES LTD, priority 2020, published 2023).

One data set concerns Glioblastoma (LN-18). The data set can be described thus: cytotoxicity in Brain Tumor Cell lines by MTT assay. It counts as cell-based, Human. The conditions noted are these: 0.05 μM-50 μM, 72 h. The protocol:
(§1) The SEQ ID NO. […] Untreated cells were used as control. […] Cells were incubated for 3 h at 37° C.
(Tetrazolium dyes change colour on reduction, which living cells bring about.)

The subject of a further data set is Neuroblastoma (SH-SY5Y). Described as above. It counts as cell-based, Human. The conditions noted are these: 0.05 μM-50 μM, 72 h. As to the method:
as §1

The next data set relates to Glioma (C6). Described as above. It counts as cell-based, Rat. The conditions noted are these: 0.05 μM-50 μM, 72 h. The protocol:
as §1

The test system of a further data set is Contactin-1. Nature of the data set: biomarker levels in IOMM-Lee by multiplex analysis. It counts as cell-based, Human. From the text:
(§2) Effect of SEQ ID No 2 on the expression of following 7 biomarkers were estimated in Human Meningioma cell line (IOMM-Lee) using multiplex analysis: TNF-alpha, VEGF, VEGFR2, HGF, HGFR/c-MET, PDGF-BB, and Contactin-1. Levels of another marker, Notch-1 were also estimated by ELISA in the same cell line. These 8 biomarkers play very crucial role in the pathogenesis and progression of Brain Tumor. […] Supernatants were collected and the levels of these 8 markers were investigated.

The test system of the next data set is HGFR/c-MET. The data set can be described thus: biomarker levels in IOMM-Lee by multiplex analysis. It is filed as cell-based, Human.
From the text: as §2

The next data set concerns HGF. The data set can be described thus: biomarker levels in IOMM-Lee by multiplex analysis. It counts as cell-based, Human.
From the text: as §2

Another data set concerns PDGF-BB. Nature of the data set: biomarker levels in IOMM-Lee by multiplex analysis. It is filed as cell-based, Human.
From the text: as §2

For a further data set, the system named is TNF-α. Nature of the data set: biomarker levels in IOMM-Lee by multiplex analysis. It counts as cell-based, Human.
From the text: as §2

The subject of a further data set is VEGFR2. Nature of the data set: biomarker levels in IOMM-Lee by multiplex analysis. It is filed as cell-based, Human.
From the text: as §2

A further data set relates to VEGF. Nature of the data set: biomarker levels in IOMM-Lee by multiplex analysis. The conditions noted are these: 0.1 μM. It counts as cell-based, Human.
From the text: as §2

For a further data set, the system named is Notch-1. Nature of the data set: biomarker levels in IOMM-Lee by ELISA. It counts as cell-based, Human. The conditions noted are these: 0.1 μM.
From the text: as §2
Background: ELISA stands for enzyme-linked immunosorbent assay.

The test system of a further data set is Meningioma (IOMM-Lee). The data set can be described thus: cytotoxicity in Brain Tumor Cell lines by MTT assay. The conditions noted are these: 0.05 μM-50 μM, 72 h.
Another data set concerns Astrocytoma (U87MG). Described as above. The conditions noted are these: 0.05 μM-50 μM, 72 h.

With `CO[C@H]1C[C@@H]2CC[C@@H](C)[C@@](O)(O2)C(=O)C(=O)N2CCCC[C@H]2C(=O)O[C@H]([C@H](C)C[C@@H]2CC[C@@H](OCCO)[C@H](OC)C2)CC(=O)[C@H](C)/C=C(\C)[C@@H](O)[C@@H](OC)C(=O)[C@H](C)C[C@H](C)/C=C/C=C/C=C/1C` [Everolimus], the “% of cytotoxicity” value is on record as 3.5%-90.7% with Glioblastoma (LN-18); 29.7%-70.1% in the data set with Neuroblastoma (SH-SY5Y); 50.3%-97.2% in the data set with Glioma (C6); 44.7%-97.4% in the data set with Meningioma (IOMM-Lee); 43.6%-88.0% in the data set on Astrocytoma (U87MG). The “Percentage inhibition on levels of Contactin-1” value is 14.9% with Contactin-1 (0.1 μM) and 31.3% in the data set on Contactin-1 (5 μM). Also, the “Percentage inhibition on levels of HGFR/c-MET” value in the data set on HGFR/c-MET (0.1 μM) came out at 21.2%; with HGFR/c-MET (5 μM), 41%. The “Percentage inhibition on levels of HGF” value in the data set on HGF (0.1 μM) amounted to 59.2%; in the data set on HGF (5 μM), 80.8%. Further, the “Percentage inhibition on levels of PDGF-BB” value in the data set on PDGF-BB (0.1 μM) is listed as 1.5%; in the data set on PDGF-BB (5 μM) it was 67.9%. Also, the “Percentage inhibition on levels of TNF-α” value in the data set with TNF-α (0.1 μM) worked out at 42.3%; in the data set with TNF-α (5 μM) it was 100%. Further, the “Percentage inhibition on levels of VEGFR2” value in the data set on VEGFR2 (0.1 μM) is recorded as 27.6%; with VEGFR2 (5 μM), 100%. The “Percentage inhibition on levels of VEGF” value in the data set with VEGF is 45.8%. For the same compound, the “Percentage inhibition on levels of Notch-1” value with Notch-1 was determined as 75.9%.
